Data taken from patent publication US5413990A, “N-terminus modified analogs of LHRH” (Tap Pharmaceuticals Inc., priority 1993, dated 1995).
Square brackets hold non-standard residues; d marks the D form. Peptide text beside a SMILES is read from it. * marks the point of attachment. X3 = NC(=O)N[C@H](Cc1ccc2ccccc2c1)C(=O)*; dPhe(4-Cl) = N[C@H](Cc1ccc(Cl)cc1)C(=O)O; Desaminotyrosyl = O=C(CCc1ccc(O)cc1)*; d2Nal = N[C@H](Cc1ccc2ccccc2c1)C(=O)O; Lys(iPr) = CC(C)NCCCC[C@H](N)C(=O)O; NMeY = CN[C@@H](Cc1ccc(O)cc1)C(=O)O; dCit = NC(=O)NCCC[C@@H](N)C(=O)O; d3Pal = N[C@H](Cc1cccnc1)C(=O)O; Nicotinoyl = O=C(c1cccnc1)*; Methoxyacetyl = COCC(=O)*; Bz = O=C(c1ccccc1)*; For = O=C*

Target: T1, LHRH (Rattus norvegicus, UniProt P30969)
T1 construct: evaluated in an in vitro test for LHRH antagonist potency (pA2); endogenous in cells; host or cells: pituitary cells (rat, from my own knowledge of the cited method)
T1 sequence (P30969 1-327): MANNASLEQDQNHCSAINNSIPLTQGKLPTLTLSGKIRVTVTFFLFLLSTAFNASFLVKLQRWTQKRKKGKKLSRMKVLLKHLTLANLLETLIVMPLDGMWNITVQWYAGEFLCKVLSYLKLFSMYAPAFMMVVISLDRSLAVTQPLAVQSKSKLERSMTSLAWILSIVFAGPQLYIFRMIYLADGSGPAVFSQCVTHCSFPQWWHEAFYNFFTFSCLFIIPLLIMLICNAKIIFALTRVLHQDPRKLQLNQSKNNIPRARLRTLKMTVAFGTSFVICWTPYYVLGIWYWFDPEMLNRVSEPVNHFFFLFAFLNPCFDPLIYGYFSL
Assay: in vitro test for LHRH antagonist potency (pA2)
Assay type: cell-based
Conditions: negative logarithm of the antagonist concentration required to shift the response curve produced by the agonist leuprolide to two-fold higher concentration
Procedure: Representative compounds of the present invention were evaluated in an in vitro test for LHRH antagonist potency (pA2). The test employed the method detailed in F. Haviv, et al. J. Med. Chem., 32:2340-2344 (1989). The values of pA2 are the negative logarithms of the concentration of the particular antagonist test compound required to shift the response curve produced by the agonist leuprolide to two-fold higher concentration. (Leuprolide is the LHRH agonist having the structure 5-oxo-Pro^1 -His^2 -Trp^3 -Ser^4 -Tyr^5 -D-Leu^6 -Leu^7 -Arg^8 -Pro^9 -NHEt and is disclosed and claimed in U.S. Pat. No. 4,005,063.) Typically pA2 values of 9.5 or greater are indicative of good LHRH antagonist potency, with values of 10.0 or greater being preferred.

CC(C)C[C@H](NC(=O)[C@@H](CCCCNC(=O)c1cccnc1)NC(=O)[C@H](Cc1ccc(O)cc1)N(C)C(=O)[C@H](CO)NC(=O)[C@@H](Cc1cccnc1)NC(=O)[C@@H](Cc1ccc(Cl)cc1)NC(=O)[C@@H](Cc1ccc2ccccc2c1)NC(=O)c1ccccc1)C(=O)N[C@@H](CCCCNC(C)C)C(=O)N1CCC[C@H]1C(=O)N[C@H](C)C(N)=O [Example 2j, N-Benzoyl-D2Nal-D4ClPhe-D3Pal-Ser-NMeTyr-DLys(N-epsilon-Nicotinyl)-Leu-Lys(N-epsilon-Isopropyl)-Pro-DAlaNH2] (Bz-[d2Nal][dPhe(4-Cl)][d3Pal]S[NMeY][dK](Nicotinoyl)L[Lys(iPr)]P[dA]-NH2)
Kb: 50.1 pM

CC(C)C[C@H](NC(=O)[C@@H](CCCNC(N)=O)NC(=O)[C@H](Cc1ccc(O)cc1)N(C)C(=O)[C@H](CO)NC(=O)[C@@H](Cc1cccnc1)NC(=O)[C@@H](Cc1ccc(Cl)cc1)NC(=O)[C@@H](Cc1ccc2ccccc2c1)NC(N)=O)C(=O)N[C@@H](CCCNC(=N)N)C(=O)N1CCC[C@H]1C(=O)N[C@H](C)C(N)=O [Example 7, N:(Aminocarbonyl)-D2Nal-D4ClPhe-D3 Pal-Ser- NMeTyr-DCit-Leu-Arg-ProDAIaNH2] (X3-[dPhe(4-Cl)][d3Pal]S[NMeY][dCit]LRP[dA]-NH2)
Kb: 6.03 pM

CC(C)C[C@H](NC(=O)[C@@H](CCCCNC(=O)c1cccnc1)NC(=O)[C@H](Cc1ccc(O)cc1)N(C)C(=O)[C@H](CO)NC(=O)[C@@H](Cc1cccnc1)NC(=O)[C@@H](Cc1ccc(Cl)cc1)NC(=O)[C@@H](Cc1ccc2ccccc2c1)NC(=O)CCc1ccc(O)cc1)C(=O)N[C@@H](CCCCNC(C)C)C(=O)N1CCC[C@H]1C(=O)N[C@H](C)C(N)=O [Example 2m, N-3-(4-Hydroxyphenyl)propionyl-D2Nal-D4ClPhe-D3Pal-Ser-NMeTyr-DLys(N-epsilon-Nicotinyl)-Leu-Lys(N-epsilon -Isopropyl)-Pro-DAlaNH2] (Desaminotyrosyl-[d2Nal][dPhe(4-Cl)][d3Pal]S[NMeY][dK](Nicotinoyl)L[Lys(iPr)]P[dA]-NH2)
Kb: 20 pM

COCC(=O)N[C@H](Cc1ccc2ccccc2c1)C(=O)N[C@H](Cc1ccc(Cl)cc1)C(=O)N[C@H](Cc1cccnc1)C(=O)N[C@@H](CO)C(=O)N(C)[C@@H](Cc1ccc(O)cc1)C(=O)N[C@H](CCCCNC(=O)c1cccnc1)C(=O)N[C@@H](CC(C)C)C(=O)N[C@@H](CCCCNC(C)C)C(=O)N1CCC[C@H]1C(=O)N[C@H](C)C(N)=O [Example 2d, N-Methoxyacetyl-D2Nal-D4ClPhe-D3Pal-Ser-NMeTyr-DLys(N-epsilon-Nicotinyl)-Leu-Lys(N-epsilon-Isopropyl)-Pro-DAlaNH 2] (Methoxyacetyl-[d2Nal][dPhe(4-Cl)][d3Pal]S[NMeY][dK](Nicotinoyl)L[Lys(iPr)]P[dA]-NH2)
Kb: 7.24 pM

CC(C)C[C@H](NC(=O)[C@@H](CCCNC(N)=O)NC(=O)[C@H](Cc1ccc(O)cc1)N(C)C(=O)[C@H](CO)NC(=O)[C@@H](Cc1cccnc1)NC(=O)[C@@H](Cc1ccc(Cl)cc1)NC(=O)[C@@H](Cc1ccc2ccccc2c1)NC=O)C(=O)N[C@@H](CCCNC(=N)N)C(=O)N1CCC[C@H]1C(=O)N[C@H](C)C(N)=O [Example 5a, N-Formyl-D2Nal-D4ClPhe-D3Pal-Ser-NMeTyr-DCit-Leu-Arg-Pro-DAlaNH2] (For-[d2Nal][dPhe(4-Cl)][d3Pal]S[NMeY][dCit]LRP[dA]-NH2)
Kb: 4.47 pM
